Measurements as given in the NIST ThermoML archive (doi:10.1016/j.tca.2012.12.004).

Experiment: molar heat capacity at constant pressure; xn = mol fraction of the nth substance listed
Details: 101 kPa, Crystal, Small (less than 1 g) adiabatic calorimetry, x1 = 0.7

[Ba+2].[F-].[F-] [barium difluoride] + [F][La]([F])[F]
Details	molar heat capacity at constant pressure [J/K/mol]
10 K	0.3566
15 K	1.198
20 K	2.757
25 K	4.992
30 K	7.683
35 K	10.6
40 K	13.58
45 K	16.57
50 K	19.51
60 K	25.25
70 K	30.71
80 K	35.83
90 K	40.57
100 K	44.9
110 K	48.81
120 K	52.33
130 K	55.47
140 K	58.27
150 K	60.76
160 K	62.98
170 K	64.95
180 K	66.7
190 K	68.28
200 K	69.68
210 K	70.94
220 K	72.07
230 K	73.09
240 K	74.02
250 K	74.85
260 K	75.6
270 K	76.29
280 K	76.91
290 K	77.48
298.15 K	77.91
300 K	78.01
310 K	78.48
320 K	78.93
330 K	79.33
340 K	79.7
